Target: PA-IL (lectin A, Lec A) (Pseudomonas aeruginosa, UniProt Q05097)
Assay: Lectin histochemistry: D-galactose blocking of biotinylated PA-IL binding to human respiratory epithelia, in relation to storage time of the sugar solution
Details: for PA-IL lectin binding at the cilia of human respiratory epithelia in presence of D-galactose: 5 μg/ml PA-IL
Procedure: Tissue preparation and lectin histological staining has been described (Schreiber et al. (2014) Anticancer Res. 34 (12): 7045-53). Five μm thick sections of human airway epithelium were applied to Adhesion Micro Slides (Histo Bond®; Marienfeld GmbH, Lauda-Königshofen Germany). Slides were deparaffinized and rehydrated through a series of graded ethanol to distilled water. […] Deparaffinized sections were briefly incubated in lectin buffer (LB) consisting of tris-buffered saline (TBS contained Trizma Base, 50 mM Tris; Sigma, Steinheim, Germany), sodium chloride (150 mM; J. T. Baker, Deventer, the Netherlands) and hydrochloric acid (Merck, Darmstadt, Germany) in distilled water (adjusted to pH 7.6) with addition of 1% MgCl2 and 1% CaCl2) (Merck, Darmstadt Germany). Sections were then treated with 0.1% trypsin (Biochrom KG, Berlin, Germany) dissolved in LB and incubated for 10 min at 37° C. To stop the digestion of the sections with trypsin, the sections were washed in running tap water for 5 min. […] This step was followed by three washes (5 min each) in TBS. Afterwards the sections were incubated with alkaline phosphatase streptavidin complex (Vectastain® ABC-Kit; Vector Laboratories) in a humid chamber for 30 min. After final three rinsings (5 min each) in TBS, sections were transferred into the visualizing mixture containing naphthol-AS-biphosphate, hexatozised new fuchsin, dimethylformamide and tween 20 (all from Sigma-Aldrich Chemie, Darmstadt, Germany) applied in the dark for 20 min to visualize enzyme reactivity. To stop the enzyme reaction, the sections were washed in running tap water (7 min) and were then transferred into distilled water (2 min). Counterstaining was performed using Mayer's hemalum (Merck). The sections were dehydrated and subsequently covered using a resinous permanent mounting medium (Eukitt, Kindler GmbH, Freiburg, Germany). Slides were first evaluated using a ZEISS Axiophot 2 microscope (Carl Zeiss, Jena, Germany). Digital images were obtained with a ZEISS Axio Scan Z1 slide scanner equipped with a ZEISS EC Plan-Neofluar 20×/0.50 Pol M27 objective (Carl Zeiss, Jena, Germany) and a Hitachi HV-F20SCL camera with 1600×1200 pixels (Hitachi Kokusai Electric America Ltd., New York, USA). For image acquisition ZEISS ZEN 2.3 software was used (Carl Zeiss, Jena, Germany). Images were further processed with netScope Viewer software (Net-Base Software, Freiburg, Germany).
For the PA-IL blocking experiments, 10 μg/ml PA-IL solution dissolved in LB was incubated 1:1 with a freshly prepared D-galactose solution (Merck, Darmstadt) for 30 min resulting in a final 5 μg/ml PA-IL solution before applying the mixture to the sections. The final concentration of D-galactose in solution ranged from 0.3 mM to 0.0375 mM D-galactose.
To analyze the loss of D-galactose activity to block PA-IL tissue binding in relation to storage time in an aqueous solution, D-galactose was dissolved in water and then stored for different durations (for 0, 40, 80, 160, 320 minutes as well as 12 and 24 h). After storage D-galactose was mixed with the PA-IL solution and used to incubate human respiratory epithelial tissue samples as described previously.

Chain of PA-IL (lectin A, Lec A) (Q05097 whole entry): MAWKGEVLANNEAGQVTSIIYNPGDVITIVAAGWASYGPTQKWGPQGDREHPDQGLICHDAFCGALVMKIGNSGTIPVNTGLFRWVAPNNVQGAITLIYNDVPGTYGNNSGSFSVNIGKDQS

Compound: O=C[C@H](O)[C@@H](O)[C@@H](O)[C@H](O)CO [D-galactose]
- PA-IL lectin binding at the cilia of human respiratory epithelia in presence of D-galactose (0.0375 mM D-galactose stored 80 minutes in water, FIG. 8): significantly reduced, but not completely abolished
- PA-IL blocking activity of aqueous D-galactose solution (after 80 minutes storage time in aqueous solution): nearly abolished
- PA-IL lectin binding at the cilia of human respiratory epithelia in presence of D-galactose (freshly dissolved 0.0375 mM D-galactose, time point 0, FIG. 7): abolished
- PA-IL blocking efficacy of aqueous D-galactose solution (freshly prepared solution): significant blocking activity
- period of storage in aqueous solution over which PA-IL blocking efficacy is lost (storage in aqueous solution): approximately 80 minutes
